Assay results reported in patent US6080542A, “Plant peptide transport gene” (priority 1997, dated 2000).

Key:
[1] = target: T1, yeast peptide transport system (Saccharomyces cerevisiae, UniProt P32901); experiment: Competition for L-leucyl-L-[3H]leucine uptake, PB1X-9B[pJP9]; assay type: cell-based; settings: pH 5.5
T1 construct: The ptr2 gene encodes a 602 amino acid hydrophobic polypeptide with 12 putative hydrophobic segments; expressed in transfected cells; host or cells: S. cerevisiae peptide transport mutant PB1X-9B (ptr2-2) transformed with pJP9
T1 sequence (P32901 1-601): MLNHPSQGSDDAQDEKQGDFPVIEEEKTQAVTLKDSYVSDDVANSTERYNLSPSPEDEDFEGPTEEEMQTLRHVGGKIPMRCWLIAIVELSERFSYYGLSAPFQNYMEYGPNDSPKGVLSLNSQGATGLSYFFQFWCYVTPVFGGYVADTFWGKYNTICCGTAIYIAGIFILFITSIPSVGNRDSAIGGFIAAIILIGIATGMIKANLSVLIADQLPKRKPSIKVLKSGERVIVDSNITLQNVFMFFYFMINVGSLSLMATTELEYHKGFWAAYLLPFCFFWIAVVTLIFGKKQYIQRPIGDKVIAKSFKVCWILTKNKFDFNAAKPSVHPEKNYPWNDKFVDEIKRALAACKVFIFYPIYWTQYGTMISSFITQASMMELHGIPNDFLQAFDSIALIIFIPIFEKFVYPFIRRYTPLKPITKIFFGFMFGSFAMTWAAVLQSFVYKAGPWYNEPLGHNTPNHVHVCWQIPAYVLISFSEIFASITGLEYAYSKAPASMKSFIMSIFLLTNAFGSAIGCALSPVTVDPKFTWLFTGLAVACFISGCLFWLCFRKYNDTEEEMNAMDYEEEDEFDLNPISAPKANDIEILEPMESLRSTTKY
Description: (§1) L-leucyl-L [^3 H]leucine trifluoroacetic acid (TFA) was synthesized by standard solution phase techniques (Naider, F. et al., J. Biol. Chem. 249:9-20 (1974)). Uptake of L-leucyl-L-[H]leucine was performed as by Island, M. D. et al (J. Bacteriol. 169:2132-2136 (1987)), with the following modifications. Cells were grown to late log phase (26×10^7 cells/ml) overnight in SC with 2% glucose, 1 mg/ml allantoin plus amino acids to supplement auxotrophic markers. To induce peptide transport. 5-15 ml from this culture was added to 100 ml fresh medium such that the density was 3.0×10^6 cells/ml. This culture was allowed to grow (approx. 2 hrs.) to a density of 6.0×10^6 cells/ml and then harvested by centrifugation. The pelleted cells were washed twice with 10 ml cold dH2 O and suspended in cold 2% glucose to a final concentration of 2×10^8 cells/ml and incubated at 30° C. for 15 min. 500 μl of cells were then added to an equal volume of reaction mixture (30° C.) and incubated at 30°-C. At 20, 40, 60, 90, and 120 sec. intervals, 190 μl portions were removed, filtered over filters (pore size, 0.45 μm; GN-6; Gelman Sciences, Inc., Ann Arbor, Mich.) and washed 2 times with 5 ml cold, sterile dH2 O and once with 5 ml dH2 O at room temperatures. Filters were placed in scintillation vials with 5 ml of Budget-Solve scintillation cocktail (Research Products International Corp., Mount Prospect, Ill.) and counted (liquid scintillation counter; LS-7000; Beckman Instruments, Inc., Fullerton, Calif.). The final concentration of the components in the uptake assay was 1% glucose, 40 mM sodium citrate-potassium phosphate buffer (pH 5.5), and 1.5×105 M L-leucyl-L-[^3 H]leucine (specific activity, 10 mCi/mmole). Uptake is expressed as nanomoles per mg dry weight.

PB1X-2A = experiment: Growth on peptides, parental strain; assay type: cell-based, Saccharomyces cerevisiae; settings: data not shown
Description: (§2) Thus, the peptide transport mutant PB1X-9B and deletion strain PB1X-2AΔ transformed with plasmids pPTF4 (ATPTR2A) or pDTF1 (ATPTR2B) were grown on various peptides to assess the specificity of the plant peptide transporter. In addition, untransformed PB1X-9B, PB1X-9B transformed with plasmid pJP9 encoding the above-described yeast peptide transport gene, PB1X-2AΔ and PB1X-2A, the ptr2^+ parental strain to PB1X-2AΔ strain, were also assayed. Each strain was grown overnight in SC media plus uracil (non-transformed) or minus uracil (transformed) plus amino acids to stationary phase and harvested by centrifugation. Cells were then washed twice with sterile dH2 O and resuspended at 5×10^6 cells/ml. 5 μl of each suspension was applied as a small spot to a 2 ml volume of solid media in a 24 well plate. All peptides were suspended in sterile, deionized water and added to an equal volume of SC medium plus the appropriate amino acids and uracil when required. The medium for each assay thus consisted of SC medium plus or minus uracil supplemented with 80 μM of a specific peptide and auxotrophic requirements minus the amino acid components of the added peptide. The plates were incubated at 30° C. for 72 hrs. and then scored for growth.

ATPTR2Ap = experiment: Uptake of L-leucyl-L-[3H]leucine and competition, PB1X-9B[pPTF4]; settings: PB1X-9B[pPTF4]; pH 5.5; dileucine and leucine at 100-fold
Chain of ATPTR2Ap (as listed by the source): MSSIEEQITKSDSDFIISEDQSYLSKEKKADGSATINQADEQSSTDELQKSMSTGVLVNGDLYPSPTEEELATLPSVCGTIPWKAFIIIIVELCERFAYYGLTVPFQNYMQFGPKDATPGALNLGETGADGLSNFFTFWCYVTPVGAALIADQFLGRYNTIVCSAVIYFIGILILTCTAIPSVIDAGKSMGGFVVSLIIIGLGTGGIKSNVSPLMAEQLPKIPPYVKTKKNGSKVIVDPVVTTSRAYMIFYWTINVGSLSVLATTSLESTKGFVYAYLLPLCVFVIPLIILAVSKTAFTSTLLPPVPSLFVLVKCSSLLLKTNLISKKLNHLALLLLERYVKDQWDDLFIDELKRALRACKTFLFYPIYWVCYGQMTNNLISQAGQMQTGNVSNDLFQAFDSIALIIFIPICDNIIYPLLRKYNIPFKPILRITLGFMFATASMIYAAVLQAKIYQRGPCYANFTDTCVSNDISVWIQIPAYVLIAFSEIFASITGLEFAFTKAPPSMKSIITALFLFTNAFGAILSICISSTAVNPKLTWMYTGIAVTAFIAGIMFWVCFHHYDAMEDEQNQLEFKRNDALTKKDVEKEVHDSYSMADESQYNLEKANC
Description: The kinetics of ATPTR2A-mediated transport of peptides in yeast was evaluated by transforming pPTF4 into the S. cerevisiae peptide transport mutant, PB1X-9B and measuring the uptake of tritiated Leu-Leu dipeptide.
as §1

PB1X-9B = experiment: Growth on peptides as amino acid source, peptide transport mutant; assay type: cell-based, Saccharomyces cerevisiae; settings: PBIX-9B; 80 μM peptide in SC medium, 30° C., 72 hrs
Description: as §2, with “In” for “Thus, the peptide transport mutant PB1X-9B and deletion strain PB1X-2AΔ transformed with plasmids pPTF4 (ATPTR2A) or pDTF1 (ATPTR2B) were grown on various peptides to assess the specificity of the plant peptide transporter. In”

PB1X-9B (pJP9) = experiment: Growth on peptides, mutant transformed with yeast peptide transport gene; assay type: cell-based, Saccharomyces cerevisiae
Description: as §2, with “In” for “Thus, the peptide transport mutant PB1X-9B and deletion strain PB1X-2AΔ transformed with plasmids pPTF4 (ATPTR2A) or pDTF1 (ATPTR2B) were grown on various peptides to assess the specificity of the plant peptide transporter. In”

PB1X-9B (pPTF4) = experiment: Growth on peptides, mutant transformed with plant gene ATPTR2A; assay type: cell-based, Saccharomyces cerevisiae
Description: as §2, with “In” for “Thus, the peptide transport mutant PB1X-9B and deletion strain PB1X-2AΔ transformed with plasmids pPTF4 (ATPTR2A) or pDTF1 (ATPTR2B) were grown on various peptides to assess the specificity of the plant peptide transporter. In”

Substance: Met-Met-Leu: tripeptide (MML)
- competition for uptake of [3H]-dileucine [1]: uptake competition similar to that seen for Leu-Leu
- utilization of peptide for growth (in words) (PB1X-2A): did not utilize
- competition for uptake of [3H]-dileucine (ATPTR2Ap): uptake competition similar to that seen for Leu-Leu
- growth on peptide (PB1X-9B): -
- growth on peptide (in words) (PB1X-9B (pJP9); PB1X-9B transformed with pJP9): showed growth on all peptides except
- growth on peptide (PB1X-9B (pJP9); PBIX-9B (pJP9), 80 μM peptide in SC medium, 30° C., 72 hrs): -
- growth on peptide (PB1X-9B (pPTF4); PBIX-9B (pPTF4), 80 μM peptide in SC medium, 30° C., 72 hrs): -
- growth on / utilization of peptide (in words) (PB1X-9B (pPTF4); plant peptide transport gene (pPTF4)): able to utilize
